Laboratory results taken from US8822500B2, “Tyrosine kinase inhibitors” (Chembridge Corporation, priority 2008, dated 2014).
Where “and” joins values, the source holds several entries; their conditions need not be identical. Equal values may be shown once.

Key:
NPM-ALK BaF3 cells = assay: BaF3 stables cell viability (WST-1); details: Mus musculus, BaF3, read-out: BaF3 Stables IC50 nM NPMALK
[1] = system: EML4-ALK R1275Q BaF3 cells; assay: BaF3 stables cell viability (WST-1); details: Mus musculus, BaF3, read-out: BaF3 Stables IC50 nM R1275Q, EML4-ALK construct
ALK = ALK (Homo sapiens (Human), UniProt Q9UM73); assay: In vitro kinase activity assay (LANCE TR-FRET); type: biochemical; details: read-out: GTx-ALK IC50;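 further: kinase reactions with ATP and a poly-GT peptide substrate, phosphorylated product read by time-resolved FRET, 11-point curve from 10^−11 to 10^−5 M, DMSO as negative control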
[2] = system: NPM-ALK R1275Q BaF3 cells; assay: BaF3 stables cell viability (WST-1); details: Mus musculus, BaF3, read-out: BaF3 Stables IC50 nM R1275Q
FLT3-ITD BaF3 cells = assay: BaF3 stables cell viability (WST-1); details: Mus musculus, BaF3, read-out: BaF3 Stables IC50 nM FLT3-ITD
EML4-ALK BaF3 cells = assay: BaF3 stables cell viability (WST-1); details: Mus musculus, BaF3, read-out: BaF3 Stables IC50 nM EML4-ALK
[3] = system: EML4-ALK C1156Y BaF3 cells; assay: BaF3 stables cell viability (WST-1); details: Mus musculus, BaF3, read-out: BaF3 Stables IC50 nM C1156Y
ALK (WT) = ALK (WT) (Homo sapiens (Human), UniProt Q9UM73); assay: Cell free kinase assay (Carna Biosciences kinases); type: biochemical
[4] = system: NPM-ALK C1156Y BaF3 cells; assay: BaF3 stables cell viability (WST-1); details: Mus musculus, BaF3, read-out: BaF3 Stables IC50 nM C1156Y
ALK R1275Q = ALK R1275Q (Homo sapiens (Human), UniProt Q9UM73, R1275Q); assay: Cell free kinase assay (Carna Biosciences kinases); type: biochemical
Sequence of ALK R1275Q (Q9UM73 1060-1620 R1275Q): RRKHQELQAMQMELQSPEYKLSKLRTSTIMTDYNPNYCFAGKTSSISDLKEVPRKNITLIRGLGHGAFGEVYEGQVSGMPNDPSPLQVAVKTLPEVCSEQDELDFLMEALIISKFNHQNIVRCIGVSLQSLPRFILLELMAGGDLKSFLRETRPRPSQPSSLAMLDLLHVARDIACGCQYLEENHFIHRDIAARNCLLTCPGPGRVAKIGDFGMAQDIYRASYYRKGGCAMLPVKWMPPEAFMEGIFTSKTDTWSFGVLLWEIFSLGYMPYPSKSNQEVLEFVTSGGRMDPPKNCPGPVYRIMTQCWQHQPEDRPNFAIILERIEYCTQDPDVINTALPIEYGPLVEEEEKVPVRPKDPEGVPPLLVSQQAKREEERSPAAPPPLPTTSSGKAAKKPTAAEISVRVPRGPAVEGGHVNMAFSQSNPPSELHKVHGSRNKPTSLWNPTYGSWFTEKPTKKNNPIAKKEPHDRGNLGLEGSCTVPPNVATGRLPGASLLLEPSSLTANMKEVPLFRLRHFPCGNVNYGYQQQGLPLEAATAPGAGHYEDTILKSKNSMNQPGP

Sequence of ALK (Q9UM73 19-1620): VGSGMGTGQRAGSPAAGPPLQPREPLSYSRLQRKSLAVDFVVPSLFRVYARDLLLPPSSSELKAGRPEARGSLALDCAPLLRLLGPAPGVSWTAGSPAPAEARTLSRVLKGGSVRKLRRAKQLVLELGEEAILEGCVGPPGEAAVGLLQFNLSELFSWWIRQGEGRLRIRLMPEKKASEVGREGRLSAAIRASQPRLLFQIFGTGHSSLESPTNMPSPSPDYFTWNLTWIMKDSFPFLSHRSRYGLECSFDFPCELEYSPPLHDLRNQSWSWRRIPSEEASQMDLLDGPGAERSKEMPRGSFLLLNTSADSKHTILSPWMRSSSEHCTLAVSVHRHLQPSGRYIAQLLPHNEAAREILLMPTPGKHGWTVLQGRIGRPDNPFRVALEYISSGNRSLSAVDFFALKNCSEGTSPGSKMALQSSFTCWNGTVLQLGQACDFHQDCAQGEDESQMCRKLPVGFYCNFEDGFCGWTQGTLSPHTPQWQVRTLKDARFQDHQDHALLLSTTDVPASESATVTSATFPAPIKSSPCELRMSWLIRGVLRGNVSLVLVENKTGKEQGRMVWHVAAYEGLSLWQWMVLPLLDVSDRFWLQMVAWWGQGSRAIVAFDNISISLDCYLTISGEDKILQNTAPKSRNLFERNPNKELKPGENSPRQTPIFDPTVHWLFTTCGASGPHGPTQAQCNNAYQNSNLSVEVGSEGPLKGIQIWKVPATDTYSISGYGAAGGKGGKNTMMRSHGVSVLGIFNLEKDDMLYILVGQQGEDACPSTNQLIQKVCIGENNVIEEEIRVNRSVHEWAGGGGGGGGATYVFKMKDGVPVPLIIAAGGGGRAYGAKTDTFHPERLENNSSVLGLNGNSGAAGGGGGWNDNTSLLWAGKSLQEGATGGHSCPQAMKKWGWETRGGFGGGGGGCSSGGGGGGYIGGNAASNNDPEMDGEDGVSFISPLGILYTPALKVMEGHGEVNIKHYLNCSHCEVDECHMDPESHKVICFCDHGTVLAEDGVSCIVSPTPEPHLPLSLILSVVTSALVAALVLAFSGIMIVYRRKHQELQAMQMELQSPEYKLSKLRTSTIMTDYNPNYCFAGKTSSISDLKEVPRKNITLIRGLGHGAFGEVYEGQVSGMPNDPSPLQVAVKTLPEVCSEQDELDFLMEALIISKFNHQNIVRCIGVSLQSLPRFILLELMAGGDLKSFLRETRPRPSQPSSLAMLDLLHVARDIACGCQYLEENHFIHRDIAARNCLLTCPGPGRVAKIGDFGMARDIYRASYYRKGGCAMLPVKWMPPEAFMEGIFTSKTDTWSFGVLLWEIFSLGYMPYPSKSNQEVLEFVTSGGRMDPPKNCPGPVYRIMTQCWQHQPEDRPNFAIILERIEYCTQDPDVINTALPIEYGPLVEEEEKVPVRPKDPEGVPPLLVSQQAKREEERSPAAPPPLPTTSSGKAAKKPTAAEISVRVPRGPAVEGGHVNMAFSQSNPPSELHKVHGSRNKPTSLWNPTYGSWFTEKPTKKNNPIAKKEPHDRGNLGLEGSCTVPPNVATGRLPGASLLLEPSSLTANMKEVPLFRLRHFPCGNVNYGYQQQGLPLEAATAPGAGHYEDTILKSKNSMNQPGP
Sequence of ALK (WT) (Q9UM73 1060-1620): as the sequence (Q9UM73 1060-1620 R1275Q) above, with Q216R counted along it

For `Cc1ccc(F)cc1C[C@H](C)Nc1cc[nH]c(=O)c1-c1nc2cc3c(cc2[nH]1)CN(CCN(C)C)C3=O` (stereo in doubt) [Compound 45, 2-(4-(1-(5-Fluoro-2-methylphenyl)propan-2-ylamino)-2-oxo-1,2-dihydropyridin-3-yl)-6-(2-(dimethylamino)ethyl)-6,7-dihydroimidazo[4,5-f]isoindole-5(1H)-one], the IC50 (NPM-ALK BaF3 cells) was 46 ± 2 nM, the IC50 [1] was about 90 nM and the IC50 (ALK) was 7 nM and 14 nM. It also gave an IC50 [2] of 81 ± 4.2 nM, an IC50 (FLT3-ITD BaF3 cells) of over 1 nM and an IC50 (EML4-ALK BaF3 cells) of 66 ± 2.7 nM. For the same compound, the IC50 [3] was 90 ± 3.2 nM, the IC50 (ALK (WT)) was 3.3 nM and the IC50 [4] was 72 ± 1.2 nM. The IC50 (ALK R1275Q; read-out: Cell Free IC50 (nM) R1275O) was 16.8 nM and the “cell free R1275Q resistance” value (ALK R1275Q; vs ALK (WT)) was 4 fold.
